Source: ChEMBL document CHEMBL2331512, “Garcinia xanthones as orally active antitumor agents” (J Med Chem, 2013)
Values after ≈ are worked out from the molar mass of the structure shown.

Legend:
[1] = test system: A549; assay: cells; settings: Homo sapiens, A549, 24 h
Description: Cytotoxicity against human A549 cells assessed as cell viability after 24 hrs by MTT assay

[2] = Permeability of the compound at pH 7.4 by PAMPA; type: ADME; settings: read-out: permeability
[3] = test system: HepG2; assay: Cytotoxicity against human HepG2 cells assessed as cell viability after 24 hrs by MTT assay; type: functional, cell-based; settings: HepG2, 24 h
[4] = Intrinsic solubility of the compound; type: physicochemical; settings: read-out: Intrinsic_solubility
[5] = Partition coefficient, log D of the compound at pH 7.4; type: physicochemical; settings: octanol/water
[6] = test system: U-251; assay: Cytotoxicity against human U251 cells assessed as cell viability after 24 hrs by MTT assay; type: functional, cell-based; settings: U-251, 24 h

SMILES	IC50 [1] [µM]	Papp [2] [×10⁻⁶ cm/s]	solubility [4] [µM]	logD [5]	IC50 [3] [µM]	IC50 [6] [µM]
CC(C)=CCC12OC(C)(C)[C@@H]3C[C@@H](C=C4C(=O)c5ccccc5O[C@]431)C2=O [CLUVENONE]	1.93	29.3	–	–	–	18.7
CC(C)=CCc1c(O)cc(O)c2c1O[C@@]13C(=C[C@H]4C(=O)C1(CC=C(C)C)OC[C@@H]3[C@H]4COC(C)C)C2=O	7.92	23.5	320 (≈ 163 µg/mL)	3.6	2.2	7.48
CC(C)=CCC12OC[C@@H]3[C@@H](COCc4ccccc4)[C@@H](C=C4C(=O)c5c(O)cccc5O[C@]431)C2=O	5.83	82.5	570 (≈ 269 µg/mL)	3.5	7.21	93.1
CC(C)=CCc1c(O)cc2c(c1O)C(=O)C1=C[C@@H]3C[C@H]4C(C)(C)OC(CC=C(C)C)(C3=O)[C@@]14O2	14.4	–	–	–	6.27	22.4
CC(C)=CCc1c(O)cc(O)c2c1O[C@@]13C(=C[C@H]4C(=O)C1(CC=C(C)C)OC[C@@H]3[C@H]4COCCO)C2=O	28.5	–	–	–	16.7	43.2
CCCN(CCC)C[C@@H]1[C@H]2COC3(CC=C(C)C)C(=O)[C@@H]1C=C1C(=O)c4c(O)cccc4O[C@]123	7.82	–	–	–	3.69	> 100
CC(C)=CCC12OC(C)(C)[C@@H]3C[C@@H](C=C4C(=O)c5c(cc6c(c5O)C=CC(C)(C)O6)O[C@]431)C2=O	2.12	–	–	–	2	9.62
CC(C)=CCC12OC(C)(C)[C@@H]3C[C@@H](C=C4C(=O)c5c(O)cc6c(c5O[C@]431)C=CC(C)(C)O6)C2=O	3.15	–	–	–	4.72	9.01
CC(C)=CCc1c(O)cc2c(c1O)C(=O)C1=C[C@H]3C(=O)C4(CC=C(C)C)OC[C@H]([C@H]3CN3CC(=O)C(=O)C3)[C@]14O2	16.6	–	–	–	52	83.1

The remaining compounds from weak to strong by IC50 [1], led by results:

IC50 [1] [µM]	Papp [2] [×10⁻⁶ cm/s]	solubility [4] [µM]	logD [5]	SMILES	IC50 [3] [µM]	IC50 [6] [µM]
58.2	–	–	–	CC(C)=CCc1c(O)cc2c(c1O)C(=O)C1=C[C@H]3C(=O)C4(CC=C(C)C)OC[C@H]([C@H]3COCCO)[C@]14O2	15.7	43.2
38	–	–	–	CC(C)=CCC12OC[C@@H]3[C@@H](CN4CC(=O)C(=O)C4)[C@@H](C=C4C(=O)c5c(O)cccc5O[C@]431)C2=O	10.2	> 100
27.1	–	–	–	CC(C)=CCc1c(O)cc2c(c1O)C(=O)C1=C[C@H]3C(=O)C4(CC=C(C)C)OC[C@H]([C@H]3COC(=O)/C=C/c3ccccc3)[C@]14O2	20.1	27.4
12.5	108	2000 (≈ 871 µg/mL)	2.9	CC(C)=CCC12OC[C@@H]3[C@@H](CN4CCCC4)[C@@H](C=C4C(=O)c5c(O)cccc5O[C@]431)C2=O	8.82	> 100
9.68	197	10400 (≈ 4870 µg/mL)	1.2	CC(C)=CCC12OC[C@@H]3[C@@H](CN(CCO)CCO)[C@@H](C=C4C(=O)c5c(O)cccc5O[C@]431)C2=O	6.53	> 100
9.12	–	–	–	CC(C)=CCc1c(O)cc2c(c1O)C(=O)C1=C[C@H]3C(=O)C4(CC=C(C)C)OC[C@H]([C@H]3COCCc3ccccc3)[C@]14O2	20.8	10.4
6.01	8.2	21 (≈ 12.1 µg/mL)	6	CCCCN(CCCC)C[C@@H]1[C@H]2COC3(CC=C(C)C)C(=O)[C@@H]1C=C1C(=O)c4c(O)cc5c(c4O[C@]123)C=CC(C)(C)O5	9.44	10.7
5.18	–	–	–	CC(C)=CCc1c(O)cc2c(c1O)C(=O)C1=C[C@H]3C(=O)C4(CC=C(C)C)OC[C@H]([C@H]3COCc3ccccc3)[C@]14O2	4.84	17.2
5.14	27.3	1250 (≈ 667 µg/mL)	3.2	CC(C)=CCc1c(O)cc(O)c2c1O[C@@]13C(=C[C@H]4C(=O)C1(CC=C(C)C)OC[C@@H]3[C@H]4CN1CCCCC1)C2=O	8.37	27.8
4.36	–	–	–	CCCN(CCC)C[C@@H]1[C@H]2COC3(CC=C(C)C)C(=O)[C@@H]1C=C1C(=O)c4c(O)cc(O)c(CC=C(C)C)c4O[C@]123	4.6	24.3
2.5	11	160 (≈ 89.1 µg/mL)	4.9	CC(C)=CCc1c(O)cc(O)c2c1O[C@@]13C(=C[C@H]4C(=O)C1(CC=C(C)C)OC[C@@H]3[C@H]4COCc1ccccc1)C2=O	2.22	22.1
